The values that follow are results of earlier work, collected in patent US20070248684A1, “Pharmaceutical formulations of oxcarbazepine and methods for its preparation” (priority 2006, published 2007).

The conditions of the data set: in words.

Turning to `NC(=O)N1c2ccccc2CC(=O)c2ccccc21` [Oxcarbazepine, 10-oxo-10,11-dihydro-5H-dibenz[b,f]azepine-5-carboxamide], the solubility in water entry is “practically insoluble”.
